Experimental data from US20080214656A1, “Compounds With Diphenoyl-Structure For the Treatment of Immune Diseases” (Neurogenex Co., Ltd., priority 2004, published 2008).

Columns and labels:
[1] = test system: allogenic human leukocytes; assay: Mixed leukocyte reaction (MLR), 3H-TdR incorporation; assay type: cell-based; settings: for cpm (3H-TdR incorporation, lymphocyte proliferation) as % of the control group: approximately 50 μM, 5 days incubation
Experimental: Leukocytes were separated from peripheral blood of two allogenic volunteers, and then suspended with a concentration of approximately 2×10^6 ml^−1 in IMDM supplemented with 10% fetal bovine serum (Gibco, USA). 100 μl of each cell suspension was added and mixed in the each well of 96-well cell culture plate. Afterwards, saline solution was added to a control group, while chebulagic acid or punicalagin, which was diluted with saline solution by 2-fold, was added to treatment groups. Then, the plates were incubated with 5% CO2 at 37° C. for 5 days. 20 μl (approximately 0.5 μCi) of tritiated thymidine (^3H-TdR) was added to each well and incubated for 8 hours.
After the incubation, the leukocytes at each well were adsorbed on a glass fiber filter by a cell harvester (Cambridge, USA) and dried thereafter. Using Scintillation beta counter (Packard, USA), an amount of ^3H-TdR incorporated within the cells was measured in a cpm value. This measurement indicates the level of lymphocyte proliferation, which-is illustrated in FIG. 2.
In FIG. 2, CsA represents a group with 1 μM of cyclosporin A used as a positive standard specimen. The concentration of each chebulagic acid and punicalagin was approximately 50 μM. Each of the experimental data was expressed as average±standard error with a p* value of less than 0.05.

Foxp3 = Foxp3 expression in stimulated CD4+ T cells by real-time RT-PCR; assay type: cell-based, mice; settings: approximately 50 μM; mouse spleen CD4+ T cells stimulated by anti-CD3 and anti-CD28
Experimental: CD4^+ T cells were obtained from the spleens of mice, and each group of the CD4^+ Tcells with a concentration of approximately 1×10^6 ml^−1 was suspended in Iscove's modified Dulbecco's medium (IMDM) supplemented with 10% fetal bovine serum (Gibco, USA). The CD4^+ T cells were stimulated by antibodies of anti-CD3 (BD Bioscience, USA) and anti-CD28 (BD Bioscience, USA) and cultured at a cell incubator maintained with 5% CO2 at 37° C. The entire RNA was extracted using RNA-Bee solution (Tel-test, USA) and then reverse transcribed into cDNA through the known method as described by McIntyre et al. (Arthritis Rheum., 48(9), pp. 2652-2659, 2003). Afterwards, the level of mRNA expression was estimated by a real-time quantitative PCR with SYBR Green I (Roche, USA). Each reaction was run in triplicate using SYBR Green PCR Master Mix (Roche, USA) according to the manufacturer's protocol. […] At this time, the PCR was performed sequentially at 94° C. for 30 seconds, at 58° C. for 30 seconds, and at 72° C. for 30 seconds. This cycle of PCR was repeated 40 times.

[2] = test system: CD4+CD25+ regulatory T cells; assay: Regulatory T cells in inflamed synovial tissues of CIA mice (FACS, Foxp3 RT-PCR); assay type: in vivo; settings: 20 mg/kg
Description: A correlation between immune regulation by chebulagic acid and regulatory T cells was studied through estimation of an increase/decrease in the number of regulatory T cells in inflamed synovial tissues of the mice with collagen-induced arthritis set in specific groups in Example 3. The knee joints of the limbs with edema were isolated and the surrounding muscle, patellar ligament and patella were removed to obtain the synovial tissues. Each of the synovial tissues was cut into small pieces and incubated twice in a buffer solution at 37° C. for 30 minutes. The buffer solution includes approximately 1 μg/ml collagenase type VI (Sigma, USA), 2% fetal bovine serum (Gibco, USA) and 1 mM EDTA (Sigma, USA). The cells of the isolated synovial tissues were collected and stained with anti-CD4-FITC antibodies (BD Bioscience, USA) and anti-CD25-PE antibodies (BD Bioscience, USA) for fluorescence-activated cell sorter (FACS) analysis (BD Bioscience, USA).

ovalbumin-induced asthma = assay: Ovalbumin-induced asthma (OIA), blood IgE level; assay type: in vivo; settings: 20 mg/kg i.p. daily for two weeks; Balb/c mice
Experimental: The immune regulation effects by compounds with a DP structure, preferably a HHDP structure, were estimated through a mice model with ovalbumin-induced asthma (OIA).
Balb/c mice (Samtaco, Korea) received an intraperitoneal injection of ovalbumin on days 0 and 14, and a solution of 1% ovalbumin was sprayed daily for 20 minutes on days 30, 32 and 34. 20 mg/kg of chebulagic acid was daily injected intraperitoneally for two weeks and bloods were taken to estimate the IgE level to check whether chebulagic acid had efficacy for the mice with the hypersensitive inflammatory disease.

[3] = test system: collagen-induced arthritis; assay: Collagen-induced arthritis (CIA), prophylactic dosing model; assay type: in vivo; settings: 10 mg/kg and 20 mg/kg i.p. daily for 3 weeks (day 22 to day 42); DBA/1J mice
Experimental: (§1) As introduced in an article by Luross and Williams (Immunology, 103(4), pp. 407-416, 2001), a mice model with collagen-induced arthritis (CIA) was used to check whether compounds with a DP or HHDP structure had immune regulatory effects on the chronic inflammation or autoimmune diseases. Male DBA/1J mice, which were 7 to 9 weeks old (SLC Co., Japan), received a subcutaneous injection at the base of tails with approximately 200 μg of bovine type II collagen (CII) in complete Freund's adjuvant (CFA) on days 0 and 21 to induce systemic autoimmune arthritis. […]
For the prophylactic dosing model, the control group and the treatment groups respectively received an intraperitoneal injection of saline solution and 10 mg/kg and 20 mg/kg of chebulagic acid daily for 3 weeks (from day 22 to day 42). A degree of arthritis of the mice was measured for every interval of 3 to 4 days from day 22 to day 63. […] Each of the experimental data was expressed as average±standard error with a P* value of less than 0.05.
(§2) The daily observed arthritis degree of mice was scored for each paw as follows: 0=normal, 1=slight erythema and edema, 2=increased edema with loss of landmarks, 3=severe edema, and 4=severe edema with ankylosis on flexion. […] Each group was then assigned an arthritic score expressed as a mean articular index.

skin allograft = assay: Skin allograft between allogenic mice; assay type: in vivo; settings: 20 mg/kg i.p. daily; Balb/c skin grafted to C57B1/6 mouse
Experimental: To verify that compounds with a DP or HHDP structure are capable of suppressing a transplantation rejection response or a graft-versus-host disease directly in vivo, a skin graft was performed between allogenic mice and then chebulagic acid was treated to estimate the level of suppression against the tissue transplantation (Schwoebel et al., Lab Anim., 39(2), pp. 209-214, 2005).
Skin tissues including the derma (e.g., approximately 1 cm×approximately 1 cm) from the back of a Balb/c mouse (Samtaco, Korea) and a C57B1/6 mouse (Samtaco, Korea) were isolated while being anesthetized. The skin tissue of the Balb/c mouse was grafted to the back of the C57B1/6 mouse. After the next day of the skin graft, the treatment group and the control group received the daily intraperitoneal injection of 20 mg/kg of chebulagic acid and saline solution, respectively. It was checked whether the grafted skin tissues in the control group and the treatment group were normal or necrotized.

[4] = test system: collagen-induced arthritis; assay: Collagen-induced arthritis (CIA), therapeutic dosing model; assay type: in vivo, mice; settings: 20 mg/kg i.p. daily for 3 weeks after arthritis induced (after day 63); within 1 week of therapeutic administration
Experimental: as §1
For the therapeutic doing model, another experiment was performed separately from the above experiment for the prophylactic dosing model. […] During 3 weeks of the treatment period, a degree of arthritis of the mice was measured for every interval of 3 to 4 days. […] Each of the experimental data was expressed as average±standard error with a P* value of less than 0.05.
as §2

[5] = synovial tissues of mice with arthritis

SMILES	cpm (3H-TdR incorporation, lymphocyte proliferation) as % of the control group [1]	increased amount of Foxp3 expression compared with the control group (Foxp3)	increase of the CD4+CD25+ T cells compared with the control group ([2]; CIA mice)	increase of the Foxp3 expression compared with the control group ([2]; CIA mice)	CD4+CD25+ T cell ratio (%) [2, 5] [%]	Foxp3 expression level [2, 5]	suppression of lymphocyte proliferation compared with cyclosporin ([1]; approximately 50 μM vs 1 μM cyclosporin A)	IgE level in blood as compared with the control group OVA-Control (ovalbumin-induced asthma)	onset of collagen-induced arthritis and articular index [3]	success ratio and period of maintaining the tissue graft (skin allograft)	arthritis progression [4]
O=C1OC2C(O)OC3COC(=O)c4cc(O)c(O)c(O)c4-c4c(O)c(O)c5oc(=O)c6c(c(O)c(O)c7oc(=O)c4c5c76)-c4c(cc(O)c(O)c4O)C(=O)OC3C2OC(=O)c2cc(O)c(O)c(O)c2-c2c1cc(O)c(O)c2O (centres unmarked) [punicalagin]	approximately 34.1%	approximately 737%									
O=C(O)C[C@@H]1C(=O)O[C@H]2[C@@H]3OC(=O)c4cc(O)c(O)c(O)c4-c4c(cc(O)c(O)c4O)C(=O)OC[C@H]2O[C@@H](OC(=O)c2cc(O)c(O)c(O)c2)[C@@H]3OC(=O)c2cc(O)c(O)c3c2[C@H]1[C@H](O)C(=O)O3 [chebulagic acid]	approximately 9.7%	approximately 375%	approximately 100%	approximately 550%	5.0 ± 0.4	3.3 ± 0.3	as effective as 1 μM cyclosporin	approximately 28.5%	decreased the onset of collagen-induced arthritis and the articular index	increased the success ratio and period of maintaining the tissue graft	significant inhibition of the arthritis progression
O=C(O[C@@H]1O[C@@H]2COC(=O)c3cc(O)c(O)c(O)c3-c3c(cc(O)c(O)c3O)C(=O)O[C@H]([C@H]1O)[C@@H]2O)c1cc(O)c(O)c(O)c1 [corilagin]		approximately 350%									
